Assay results as given in patent publication US8367079B2, “Liquid preservative compositions” (Rhodia Operations, priority 2008, dated 2013).

What was measured:
Assay type in all cases: cell-based
[1] = tested on: Aspergillus niger; test: Preservative challenge test in cleanser base, plate count; settings: inoculum about 1×10^5 to 1×10^6 cfu/mL, about 22° C.; for Day-7 Plate Count, AN: 7 days after challenge; for Day-14 Plate Count, AN: 14 days after challenge
Method: (§1) Several 200-gram samples of a cleanser base were admixed with a variety of preservative compositions, and challenged with selected bacteria and fungi (Escherichia coli, Pseudomonas aeruginosa, Staphylococcus aureus, Aspergillus niger, and Candida albicans) according to the following procedure:
(§2) About 0.5 mL of an aqueous suspension containing about 1×10^6 to about 2×10^7 colony forming units-per-milliliter (cfu/mL) of Aspergillus niger in a pH 7.2 phosphate buffer was transferred to a tube containing about 9.5 mL of a sample of a cleanser base composition to provide an inoculum level of about 1×10^5 to about 1×10^6 cfu/mL. The same procedure was used to challenge samples of the cleanser base with Candida albicans and with a mixed culture of Escherichia coli, Pseudomonas aeruginosa, and Staphylococcus aureus, at about the same inoculum levels. The challenged samples were stored at an ambient room temperature of about 22° C. At 7 days and 14 days after challenge, aliquots from each sample were diluted according to the following procedure: about 1 mL of each challenged sample was aseptically transferred into a tube containing about 9 mL of Dey/Engley (D/E) neutralizing broth with thorough mixing to provide a dilution ratio of about 1:10. About […] of each of the 1:10 diluted samples was then aseptically transferred into separate tubes, each tube containing about 9 mL of sterile buffered saline solution, (3.5 g/L phosphoric acid in 0.9 wt. % NaCl solution, adjusted to pH 7.2 with 50 wt. % aqueous sodium hydroxide), with thorough mixing, to provide a dilution ratio of about 1:1000.
(§3) Finally, each of the 1:10 diluted samples and each of the 1:1000 diluted samples were plated according to the following procedure: about 1 mL of each of the diluted samples was plated with Letheen agar (bacteria samples) or Sabouraud dextrose agar (yeast and mold samples). The Letheen agar plates were incubated at 35±2° C. for about 48 hours (about 2 days) in an inverted position, and the resulting microbial colonies were counted. The Sabouraud dextrose agar plates were incubated at 25±2° C. for about 120 hours (about 5 days) in an upright position and the resulting microbial colonies were counted.
(§4) The formulations of the cleanser base and the D/E Neutralizing Broth used in these evaluations are provided in Table 1 and Table 2, respectively.

[2] = tested on: Candida albicans; test: as above; settings: inoculum about 1×10^5 to 1×10^6 cfu/mL, about 22° C.; for Day-7 Plate Count, CA: 7 days after challenge; for Day-14 Plate Count, CA: 14 days after challenge, TN = too numerous to count
Method: as §1, §2, §3, §4

[3] = tested on: Staphylococcus aureus; test: as above; settings: inoculum about 1×10^5 to 1×10^6 cfu/mL, about 22° C.; for Day-7 Plate Count, SA: 7 days after challenge; for Day-14 Plate Count, SA: 14 days after challenge
Method: as §1, §2, §3, §4

[4] = tested on: Escherichia coli; test: as above; settings: inoculum about 1×10^5 to 1×10^6 cfu/mL, about 22° C., TN = too numerous to count; for Day-7 Plate Count, EC: 7 days after challenge; for Day-14 Plate Count, EC: 14 days after challenge
Method: as §1, §2, §3, §4

[5] = tested on: Pseudomonas aeruginosa; test: as above; settings: inoculum about 1×10^5 to 1×10^6 cfu/mL, about 22° C., TN = too numerous to count; for Day-7 Plate Count, PA: 7 days after challenge; for Day-14 Plate Count, PA: 14 days after challenge
Method: as §1, §2, §3, §4

[6] = tested on: A. niger 16404; test: Minimum Inhibitory Concentration (MIC) evaluation, broth dilution; settings: Mueller-Hinton broth, two-fold dilutions, about 35° C. for about 24 hours, visible growth
Method: (§5) In this evaluation, nutrient broth solutions were made with different concentrations of the test compounds, and then all the solutions were spiked with the same concentration of test organism. Growth was indicated by a solution becoming hazy after 24 hours of incubation time. The highest dilution without observable growth is the Minimal Inhibitory Concentration (MIC).
(§6) The following procedure was adopted from the Manual of Clinical Microbiology, 2nd Ed. published by the American Society for Microbiology, ISBN 0-914826-00-X.
(§7) Prepare and sterilize Mueller-Hinton Broth (MH broth) (Fluka) per the manufacturer's instructions (dissolve 23 grams in one liter water and autoclave at 121° C. for 15 minutes minimum).
(§8) The stock antimicrobial solution is diluted (in MH broth) to twice the highest final test concentration desired. Sterile 13×100 mm screw-capped culture tubes are used. Two-fold dilutions are made directly in the tubes. To the first tube is added 2 mL of the working solution of antimicrobial agent. To each remaining tube is added 1 mL of broth. Using aseptic technique, an amount of 1 mL is transferred from the first tube to the second tube and is thoroughly mixed. After thorough mixing, 1 mL is transferred from the second tube to the third tube. This process is repeated through the second to last tube, from which 1 mL is removed and discarded. The final tube receives no antimicrobial agent and serves as a growth control.
(§9) Buffered saline (3.5 g/L phosphoric acid in a 0.9% NaCl solution, pH adjusted to 7.2 with 50 wt. % aqueous NaOH, sterilized by autoclave).
(§10) The organisms are preferably lyophilized Microbiologics E^power E7 microorganisms (mean assay value of between 10 million and 100 million colony forming units or equivalent concentration). The final concentrations of the microorganism in the inoculum should be in the order of 10^6-10^7 cfu/mL.
(§11) 1. Allow unopened vial of microorganism pellets to equilibrate to room temperature.
(§12) 2. Warm 1 tube of 10 mL buffered saline per organism used to about 35-37° C.
(§13) 3. Using sterile forceps, transfer 2 pellets to the saline and return unused pellets to storage.
(§14) 4. Incubate the hydrated material at about 35-37° C. for about 30 minutes.
(§15) 5. Vortex the vials until homogeneous.
(§16) 6. Add 1.0 ml of the diluted culture suspension to each of the previously prepared tubes containing the preservative compositions. The final concentration of preservative is now one-half of the original concentration in each tube.
(§17) All tubes were incubated at about 35° C. for about 24 hours. The tubes were then examined for visible signs of bacterial growth.
(§18) The MIC values from Table 5 were then used to calculate the Fractional Inhibitory Concentration Index (FICI) (sometimes called the Synergy Index) of GCM and GCP versus the various individual test organisms using the following equation. FICI=(MICa/MICA)+(MICb/MICB)

[7] = tested on: P. aeruginosa 9027; test: as above; settings: Mueller-Hinton broth, two-fold dilutions, about 35° C. for about 24 hours, visible growth
Method: as §5, §6, §7, §8, §9, §10, §11, §12, §13, §14, §15, §16, §17, §18

[8] = tested on: S. aureus 6538; test: as above; settings: Mueller-Hinton broth, two-fold dilutions, about 35° C. for about 24 hours, visible growth
Method: as §5, §6, §7, §8, §9, §10, §11, §12, §13, §14, §15, §16, §17, §18

Row | SMILES | Day-7 Plate Count, AN [1] [cfu] | Day-14 Plate Count, AN [1] [cfu] | Day-7 Plate Count, CA [2] [cfu] | Day-7 Plate Count, SA [3] [cfu] | Day-14 Plate Count, SA [3] [cfu] | Day-14 Plate Count, CA [2] [cfu] | Day-7 Plate Count, EC [4] [cfu] | Day-14 Plate Count, EC [4] [cfu] | Day-7 Plate Count, PA [5] [cfu] | Day-14 Plate Count, PA [5] [cfu] | MIC Values, A. niger [6] [%] | MIC Values, P. aeruginosa [7] [%] | MIC Values, S. aureus [8] [%]
1 | O=C([O-])c1ccccc1.[Na+] [Ex. E, sodium benzoate] | 1500 | 3500 | 336500 | 9000 | 500 |  |  |  |  |  |  |  | 
2 | Cn1sccc1=O [Ex. B, 2-methyl-4-isothiazolin-3-one] | 1000 | 500 | 10500 | 215 | 6500 | 15000 | 155 | 10 | 115 | <10 |  |  | 
3 | OCCc1ccccc1 [PEA, phenethyl alcohol] |  |  |  |  |  |  |  |  |  |  | 1.0 | 0.9 | 0.9
4 | OCCc1ccccc1 [Ex. D, phenethyl alcohol] | 25 | <10 | 91000 | 7500 | 1000 | 2000 | 380 | 1000 | 10 | 1000 |  |  | 
5 | Cn1sccc1=O [MI, 2-methyl-4-isothiazolin-3-one] |  |  |  |  |  |  |  |  |  |  | 0.1 | 0.008 | 0.1
6 | CCCCCCCC(=O)OCC(O)CO (centres unmarked) [GC, glyceryl caprylate] |  |  |  |  |  |  |  |  |  |  | 2.0 | 1.0 | 1.0
7 | CCCCCCCC(=O)OCC(O)CO (centres unmarked) [Ex. C, glyceryl caprylate] | 1000 | 280 | 500 | <10 | 1000 | 485 | 15 | 10 | 7500 | 117500 |  |  | 
